Source: article PMC9317966, “Structure-function analysis of the AMPK activator SC4 and identification of a potent pan AMPK activator” (Biochemical Journal, 2022)

Test system: HEK293T/17 cells expressing WT γ1AMPK
Test: α-Thr172 phosphorylation immunoblot, HEK293T/17 cells transiently expressing WT γ1AMPK
Assay type: cell-based
Details: WT γ1-expressing cells, 2.5 µM, 60 min
Method: To explore this dose-dependent response, we used HEK293T/17 cells transiently expressing WT γ1AMPK or the AMP-insensitive γ1 mutant R299G (Supplementary Figure S4A). […] One explanation is that 2.5 µM MK-8722 caused indirect activation of AMPK (α-Thr172 phosphorylation) by inducing a metabolic stress leading to rises in AMP/ATP and ADP/ATP ratios. We examined the effect of MK-8722 incubation on C2C12 mitochondrial function (Supplementary Figure S4B–I).
HEK293T/17, HEK293T, COS7, HeLa and PC3 cells (ATCC) were maintained in Dulbecco's Modified Eagle's medium (DMEM; Sigma–Aldrich) supplemented with 10% fetal bovine serum (FBS; Assay Matrix) at 37°C and 5% CO2. Primary hepatocytes from wild type mice were prepared using the collagenase perfusion method and cultured as described previously. […]
All samples were separated on 12% SDS–PAGE gels and transferred to an Immobilon-FL PVDF membrane (Merck Millipore). […] Immunoblots were visualised on the Odyssey Infrared Imaging System (LI-COR Biosciences) and immunoreactive bands analysed and quantified using Image Studio Software (LI-COR Biosciences).
Lysates were assessed for phosphorylation of AMPKα-Thr172 by immunoblot. n = 3, data presented as mean T172 phosphorylation (arbitrary units) ± SEM. […] (J) Lysates were assessed for total protein content following the respiration assay.

O[C@@H]1CO[C@H]2[C@@H]1OC[C@H]2Oc1nc2nc(-c3ccc(-c4ccccc4)cc3)c(Cl)cc2[nH]1 [MK-8722, reference compound]
phosphorylation of α-Thr172: significantly increased
